Results taken from ChEMBL document CHEMBL1155111, “Identification of a potent, selective, and orally active leukotriene a4 hydrolase inhibitor with anti-inflammatory activity” (J Med Chem, 2008).
Values after ≈ are worked out from the molar mass of the structure shown. Values belong to the compound of their own block, whether it stands above or below them.

Legend:
[1] = Terminal elimination half life in rat plasma at 10 mg/kg, po; format: ADME, organism-based; set-up: dose 10 mg/kg, route oral
[2] = AUC (0 to infinity) in rat at 10 mg/kg, po; format: ADME, organism-based; set-up: time infinity, dose 10 mg/kg, route oral; conditions: plasma
[3] = Tmax in Beagle dog at 10 mg/kg, po; format: ADME, organism-based, Canis lupus familiaris; set-up: dose 10 mg/kg, route oral; conditions: in vivo
[4] = Clearance in Beagle dog at 2 mg/kg, iv; format: ADME, organism-based, Canis lupus familiaris; set-up: dose 2 mg/kg, route intravenous; conditions: in vivo
[5] = Clearance in rat at 2 mg/kg, iv; format: ADME, organism-based; set-up: dose 2 mg/kg, route intravenous; conditions: in vivo
[6] = Bioavailability in Beagle dog at 10 mg/kg, po; format: ADME, organism-based, Canis lupus familiaris; conditions: in vivo
[7] = AUC (0 to infinity) in Beagle dog at 10 mg/kg, po; format: ADME, organism-based, Canis lupus familiaris; set-up: time infinity, dose 10 mg/kg, route oral; conditions: plasma
[8] = Tmax in rat at 10 mg/kg, po; format: ADME, organism-based; set-up: dose 10 mg/kg, route oral; conditions: in vivo
[9] = Half life in rat plasma at 2 mg/kg, iv; format: ADME, organism-based; set-up: dose 2 mg/kg, route intravenous
[10] = Half life in Beagle dog plasma at 10 mg/kg, po; format: ADME, organism-based, Canis lupus familiaris; set-up: dose 10 mg/kg, route oral
[11] = Cmax in Beagle dog at 2 mg/kg, iv; format: ADME, organism-based, Canis lupus familiaris; set-up: dose 2 mg/kg, route intravenous; conditions: in vivo
[12] = AUC (0 to infinity) in rat at 2 mg/kg, iv; format: ADME, organism-based; set-up: time infinity, dose 2 mg/kg, route intravenous; conditions: plasma
[13] = AUC (0 to infinity) in Beagle dog at 2 mg/kg, iv; format: ADME, organism-based, Canis lupus familiaris; set-up: time infinity, dose 2 mg/kg, route intravenous; conditions: plasma
[14] = Half life in Beagle dog plasma at 2 mg/kg, iv; format: ADME, organism-based, Canis lupus familiaris; set-up: dose 2 mg/kg, route intravenous
[15] = Bioavailability in rat at 10 mg/kg, po; format: ADME, organism-based; conditions: in vivo
[16] = Volume of distribution at steady state in Beagle dog at 2 mg/kg, iv; format: ADME, organism-based, Canis lupus familiaris; set-up: dose 2 mg/kg, route intravenous; conditions: in vivo, read-out: Vdss
[17] = Volume of distribution at steady state in rat at 2 mg/kg, iv; format: ADME, organism-based; set-up: dose 2 mg/kg, route intravenous; conditions: in vivo, read-out: Vdss
[18] = Cmax in rat at 2 mg/kg, iv; format: ADME, organism-based; set-up: dose 2 mg/kg, route intravenous; conditions: in vivo
[19] = Cmax in rat at 10 mg/kg, po; format: ADME, organism-based; set-up: dose 10 mg/kg, route oral; conditions: in vivo
[20] = Cmax in Beagle dog at 10 mg/kg, po; format: ADME, organism-based, Canis lupus familiaris; set-up: dose 10 mg/kg, route oral; conditions: in vivo
[21] = AUC (0 to infinity) in Beagle dog at 30 mg/kg, po; format: ADME, organism-based, Canis lupus familiaris; set-up: time infinity, dose 30 mg/kg, route oral; conditions: plasma
[22] = Bioavailability in rat at 30 mg/kg, po; format: ADME, organism-based; conditions: in vivo
[23] = Bioavailability in Beagle dog at 30 mg/kg, po; format: ADME, organism-based, Canis lupus familiaris; conditions: in vivo
[24] = Cmax in Beagle dog at 3 mg/kg, iv; format: ADME, organism-based, Canis lupus familiaris; set-up: dose 3 mg/kg, route intravenous; conditions: in vivo
[25] = Metabolic stability in human liver microsomes assessed as elimination half life; format: ADME, Microsome
[26] = AUC (0 to infinity) in rat at 30 mg/kg, po; format: ADME, organism-based; set-up: time infinity, dose 30 mg/kg, route oral; conditions: plasma
[27] = Clearance in Beagle dog at 3 mg/kg, iv; format: ADME, organism-based, Canis lupus familiaris; set-up: dose 3 mg/kg, route intravenous; conditions: in vivo
[28] = Volume of distribution at steady state in rat at 3 mg/kg, iv; format: ADME, organism-based; set-up: dose 3 mg/kg, route intravenous; conditions: in vivo, read-out: Vdss
[29] = Metabolic stability in rat liver S9 fraction assessed as elimination half life; format: ADME, subcellular
[30] = Metabolic stability in mouse liver S9 fraction assessed as elimination half life; format: ADME, subcellular
[31] = Cmax in Beagle dog at 30 mg/kg, po; format: ADME, organism-based, Canis lupus familiaris; set-up: dose 30 mg/kg, route oral; conditions: in vivo
[32] = Half life in Beagle dog plasma at 3 mg/kg, iv; format: ADME, organism-based, Canis lupus familiaris; set-up: dose 3 mg/kg, route intravenous
[33] = Solubility at pH 7.4; format: physicochemical; conditions: buffer
[34] = Metabolic stability in dog liver S9 fraction assessed as elimination half life; format: ADME, subcellular, Canis lupus familiaris
[35] = AUC (0 to infinity) in rat at 3 mg/kg, iv; format: ADME, organism-based; set-up: time infinity, dose 3 mg/kg, route intravenous; conditions: plasma
[36] = AUC (0 to infinity) in Beagle dog at 3 mg/kg, iv; format: ADME, organism-based, Canis lupus familiaris; set-up: time infinity, dose 3 mg/kg, route intravenous; conditions: plasma
[37] = Tmax in Beagle dog at 30 mg/kg, po; format: ADME, organism-based, Canis lupus familiaris; set-up: dose 30 mg/kg, route oral; conditions: in vivo
[38] = Terminal elimination half life in rat plasma at 30 mg/kg, po; format: ADME, organism-based; set-up: dose 30 mg/kg, route oral
[39] = Half life in rat plasma at 3 mg/kg, iv; format: ADME, organism-based; set-up: dose 3 mg/kg, route intravenous
[40] = Tmax in rat at 30 mg/kg, po; format: ADME, organism-based; set-up: dose 30 mg/kg, route oral; conditions: in vivo
[41] = Chemical stability assessed as half life of hydrolysis at pH 7.4; format: physicochemical; conditions: buffer
[42] = Cmax in rat at 3 mg/kg, iv; format: ADME, organism-based; set-up: dose 3 mg/kg, route intravenous; conditions: in vivo
[43] = Cmax in rat at 30 mg/kg, po; format: ADME, organism-based; set-up: dose 30 mg/kg, route oral; conditions: in vivo
[44] = Chemical stability assessed as half life of hydrolysis at pH 2; format: physicochemical; conditions: buffer
[45] = Clearance in rat at 3 mg/kg, iv; format: ADME, organism-based; set-up: dose 3 mg/kg, route intravenous; conditions: in vivo
[46] = Half life in Beagle dog plasma at 30 mg/kg, po; format: ADME, organism-based, Canis lupus familiaris; set-up: dose 30 mg/kg, route oral
[47] = Volume of distribution at steady state in Beagle dog at 3 mg/kg, iv; format: ADME, organism-based, Canis lupus familiaris; set-up: dose 3 mg/kg, route intravenous; conditions: in vivo, read-out: Vdss

half-life [1]: 5.6 h | AUC(0-inf) [2]: 33 µM·h | Tmax [3]: 1 h | clearance [4]: 93.3 mL/min | clearance [5]: 3 mL/min | bioavailability [6]: 150% | AUC(0-inf) [7]: 60.3 µM·h | Tmax [8]: 5.3 h | half-life [9]: 3.5 h | half-life [10]: 6.9 h | Cmax [11]: 2800 nM | AUC(0-inf) [12]: 10 µM·h | AUC(0-inf) [13]: 8 µM·h | half-life [14]: 3.6 h | bioavailability [15]: 65% | Vd [16]: 3.2 L/kg | Vd [17]: 2.5 L/kg | Cmax [18]: 2200 nM | Cmax [19]: 2200 nM | Cmax [20]: 26000 nM
SMILES: O=C(CO)NC1CCN(Cc2ccc(Oc3nc4ccccc4s3)cc2)CC1

AUC(0-inf) [21]: 4.2 µM·h | bioavailability [22]: 31% | bioavailability [23]: 11% | Cmax [24]: 4500 nM | half-life [25]: > 1.67 h | AUC(0-inf) [26]: 15 µM·h | clearance [27]: 13 mL/min | Vd [28]: 7 L/kg | half-life [29]: > 1.67 h | half-life [30]: 0.667 h | Cmax [31]: 1200 nM | half-life [32]: 1 h | solubility [33]: 160 µg/mL (≈ 473 µM) | half-life [34]: 0.9 h | AUC(0-inf) [35]: 4.8 µM·h | AUC(0-inf) [36]: 3.9 µM·h | Tmax [37]: 2.3 h | half-life [38]: 5.2 h | half-life [39]: 2.6 h | Tmax [40]: 4.6 h | half-life [41]: > 16.7 h | Cmax [42]: 3800 nM | Cmax [43]: 1100 nM | half-life [44]: 1.5 h | clearance [45]: 9.5 mL/min | half-life [46]: 2.3 h | Vd [47]: 3.2 L/kg
SMILES: c1ccc2oc(Oc3ccc(OCCN4CCCCC4)cc3)nc2c1
